Measurements taken from patent US9918470B2, “Pesticidal mixtures” (Syngenta Participations AG, priority 2011, dated 2018).

Assays:
[1] = tested on: Heliothis virescens (Tobacco Budworm); test: Heliothis virescens (Tobacco Budworm): eggs on artificial diet in 24-well plate, larval mortality after 4 days; type: in vivo
Procedure: Heliothis virescens (Tobacco Budworm)
Eggs (0-24 h old) are placed in 24-well microtiter plate on artificial diet and treated with test solutions (DMSO) by pipetting. After an incubation period of 4 days, samples are checked for larval mortality.
(§1) Columns 4 and 5 show the control observed from the compounds alone. […] When a compound applied alone gave no control at a particular rate, it is assumed that lower rates of that compound alone also give no control. DMET=deltamethrin, SPAT=spirotetramat, IMID=imidacloprid, B15=compound 15 in Table B.

[2] = tested on: Tetranychus urticae (Two-Spotted Spider Mite); test: Tetranychus urticae (Two-Spotted Spider Mite): sprayed bean leaf discs, mobile stages mortality after 8 days; type: in vivo
Source text: Tetranychus urticae (Two-Spotted Spider Mite)
Bean leaf discs on agar in 24-well microtiter plates are sprayed with test solutions (DMSO). After drying, the leaf discs are infested with mite populations of mixed ages. 8 days later, discs are checked for mobile stages (I removed “mixed population”) mortality.
as §1

SMILES: CC(NC(=O)C1CC1)c1ccc(N2CCC(c3cc(C(F)(F)F)cc(C(F)(F)F)c3)(C(F)(F)F)C2)cc1 (mixture of isomers) [Compound B15]
- B15 observed control % ([1]; B15 alone 0.05 ppm (Table 2)): 0%
- B15 observed control % ([1]; B15 alone 0.1 ppm (Table 1)): 55%
- B15 observed control % ([1]; B15 alone 0.1 ppm (Table 2)): 0%
- B15 observed control % ([1]; B15 alone 0.2 ppm (Table 1)): 75%
- B15 observed control % ([1]; B15 alone 0.2 ppm (Table 2)): 85%
- B15 observed control % ([1]; B15 alone 0.4 ppm (Table 1)): 75%
- B15 observed control % ([1]; B15 alone 0.4 ppm (Table 2)): 90%
- B15 observed control % ([1]; B15 alone 0.8 ppm (Table 1)): 85%
- B15 observed control % ([1]; B15 alone 0.8 ppm (Table 2)): 90%
- B15 observed control % ([1]; B15 alone 1.6 ppm (Table 1)): 95%
- B15 observed control % ([2]; B15 alone 0.187 ppm): 0%
- B15 observed control % ([2]; B15 alone 0.375 ppm): 0%
- B15 observed control % ([2]; B15 alone 0.75 ppm): 0%
- B15 observed control % ([2]; B15 alone 1.5 ppm): 30%

SMILES: CC1(C)[C@H](C(=O)O[C@H](C#N)c2cccc(Oc3ccccc3)c2)[C@@H]1C=C(Br)Br [DMET, deltamethrin]
- DMET observed control % ([1]; DMET alone 0.0062 ppm): 0%
- DMET observed control % ([1]; DMET alone 0.0125 ppm): 0%
- DMET observed control % ([1]; DMET alone 0.025 ppm): 0%
- DMET observed control % ([1]; DMET alone 0.05 ppm): 0%
- DMET observed control % ([1]; DMET alone 0.1 ppm): 0%
- DMET observed control % ([1]; DMET alone 0.2 ppm): 0%
- DMET observed control % ([1]; DMET alone 0.4 ppm): 0%
- DMET observed control % ([1]; DMET alone 0.8 ppm): 0%

SMILES: O=[N+]([O-])NC1=NCCN1Cc1ccc(Cl)nc1 [IMID, imidacloprid]
- IMID observed control % ([2]; IMID alone 12.5 ppm): 0%
- IMID observed control % ([2]; IMID alone 25 ppm): 0%
- IMID observed control % ([2]; IMID alone 50 ppm): 0%
- IMID observed control % ([2]; IMID alone 100 ppm): 0%
- IMID observed control % ([2]; IMID alone 200 ppm): 0%
- IMID observed control % ([2]; IMID alone 400 ppm): 0%

SMILES: CCOC(=O)OC1=C(c2cc(C)ccc2C)C(=O)N[C@]12CC[C@@H](OC)CC2 [SPAT, spirotetramat]
- SPAT observed control % ([1]; SPAT alone 6.25 ppm): 0%
- SPAT observed control % ([1]; SPAT alone 12.5 ppm): 0%
- SPAT observed control % ([1]; SPAT alone 25 ppm): 0%
- SPAT observed control % ([1]; SPAT alone 50 ppm): 0%
- SPAT observed control % ([1]; SPAT alone 100 ppm): 0%
- SPAT observed control % ([1]; SPAT alone 200 ppm): 55%
